Measurements taken from paper PMC7673538 (PLoS Biology, 2020).
Where “and” joins values, the source holds several entries; their conditions need not be identical. Equal values may be shown once. Read-outs that look alike come from different tables or passages of the source.

Legend:
[1] = test system: CV-B3; assay: microbe, parasite or virus in culture; assay type: cell-based, coxsackievirus B3; details: Enterovirus B
[2] = molecular target: T1, human NET (Homo sapiens, UniProt P23975); assay type: cell-based; details: for NET, Mean (Figure 8B): Control = 100; for NET, Mean as % (Figure 8B): Control = 100%
T1 construct: expressed in transfected cells; host or cells: HEK293 (gift of Dr. Hoener, F. Hoffmann-La Roche)
T1 sequence (P23975 whole entry): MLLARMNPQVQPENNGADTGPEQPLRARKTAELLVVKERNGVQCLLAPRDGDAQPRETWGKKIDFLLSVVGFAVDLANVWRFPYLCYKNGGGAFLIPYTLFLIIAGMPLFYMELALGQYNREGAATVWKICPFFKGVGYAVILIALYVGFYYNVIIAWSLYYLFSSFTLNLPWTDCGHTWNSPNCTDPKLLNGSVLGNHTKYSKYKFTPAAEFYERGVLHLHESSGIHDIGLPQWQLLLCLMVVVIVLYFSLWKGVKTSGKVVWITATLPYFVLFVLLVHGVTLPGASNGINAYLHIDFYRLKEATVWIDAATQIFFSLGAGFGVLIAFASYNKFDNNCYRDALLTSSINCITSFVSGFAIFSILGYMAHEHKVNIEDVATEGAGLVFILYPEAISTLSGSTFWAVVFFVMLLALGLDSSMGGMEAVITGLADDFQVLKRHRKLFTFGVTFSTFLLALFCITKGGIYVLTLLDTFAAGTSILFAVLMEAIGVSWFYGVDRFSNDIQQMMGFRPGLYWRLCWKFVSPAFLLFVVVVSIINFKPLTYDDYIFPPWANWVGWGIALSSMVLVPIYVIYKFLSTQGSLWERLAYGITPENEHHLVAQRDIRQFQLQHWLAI

[3] = test system: HeLa R19 cells
[4] = test system: HRV-B14; assay: microbe, parasite or virus in culture; assay type: cell-based, human rhinovirus; details: Human rhinovirus sp.
[5] = in vitro; details: human
[6] = test system: representative EVs and RVs; assay type: cell-based
[7] = molecular target: T2, human DAT (Homo sapiens, UniProt Q01959); assay type: cell-based; details: for DAT, Mean (Figure 8B): Control = 100; for DAT, Mean as % (Figure 8B): Control = 100%
T2 construct: expressed in transfected cells; host or cells: HEK293 (gift of Dr. Hoener, F. Hoffmann-La Roche)
T2 sequence (Q01959 whole entry): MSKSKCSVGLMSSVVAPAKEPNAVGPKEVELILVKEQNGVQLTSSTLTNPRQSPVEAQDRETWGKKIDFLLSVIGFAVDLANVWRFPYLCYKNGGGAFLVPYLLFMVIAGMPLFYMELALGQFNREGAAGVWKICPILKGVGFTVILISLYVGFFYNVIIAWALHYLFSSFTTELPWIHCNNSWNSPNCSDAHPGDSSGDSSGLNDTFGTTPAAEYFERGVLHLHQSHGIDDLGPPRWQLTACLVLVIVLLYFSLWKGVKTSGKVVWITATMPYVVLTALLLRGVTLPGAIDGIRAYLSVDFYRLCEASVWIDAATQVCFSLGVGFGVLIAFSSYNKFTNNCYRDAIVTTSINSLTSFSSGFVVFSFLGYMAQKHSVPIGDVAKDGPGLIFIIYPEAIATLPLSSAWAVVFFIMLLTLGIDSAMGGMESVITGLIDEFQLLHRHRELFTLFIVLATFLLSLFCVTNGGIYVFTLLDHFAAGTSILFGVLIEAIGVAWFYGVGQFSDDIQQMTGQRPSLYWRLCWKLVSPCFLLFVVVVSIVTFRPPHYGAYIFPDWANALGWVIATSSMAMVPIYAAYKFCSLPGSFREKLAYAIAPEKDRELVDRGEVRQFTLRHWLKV

[8] = in vitro; details: human; remark: listed apart in the source
[9] = test system: CV-A24; assay: microbe, parasite or virus in culture; assay type: cell-based, coxsackievirus A24
[10] = test system: EV-D68; assay: microbe, parasite or virus in culture; assay type: cell-based, enterovirus D68; details: for EC50: Enterovirus D
[11] = in vitro; details: monkey
[12] = test system: EV-A71; assay: microbe, parasite or virus in culture; assay type: cell-based, enterovirus A71; details: Enterovirus A
[13] = test system: CV-B3; assay: microbe, parasite or virus in culture; assay type: cell-based, coxsackievirus B3; details: Enterovirus B, CVB3, BGM
[14] = molecular target: T3, human SERT (Homo sapiens, UniProt P31645); assay type: cell-based; details: for SERT, Mean (Figure 8B): Control = 100.00; for SERT, Mean as % (Figure 8B): Control = 100%
T3 construct: expressed in transfected cells; host or cells: HEK293 (gift of Dr. Hoener, F. Hoffmann-La Roche)
T3 sequence (P31645 whole entry): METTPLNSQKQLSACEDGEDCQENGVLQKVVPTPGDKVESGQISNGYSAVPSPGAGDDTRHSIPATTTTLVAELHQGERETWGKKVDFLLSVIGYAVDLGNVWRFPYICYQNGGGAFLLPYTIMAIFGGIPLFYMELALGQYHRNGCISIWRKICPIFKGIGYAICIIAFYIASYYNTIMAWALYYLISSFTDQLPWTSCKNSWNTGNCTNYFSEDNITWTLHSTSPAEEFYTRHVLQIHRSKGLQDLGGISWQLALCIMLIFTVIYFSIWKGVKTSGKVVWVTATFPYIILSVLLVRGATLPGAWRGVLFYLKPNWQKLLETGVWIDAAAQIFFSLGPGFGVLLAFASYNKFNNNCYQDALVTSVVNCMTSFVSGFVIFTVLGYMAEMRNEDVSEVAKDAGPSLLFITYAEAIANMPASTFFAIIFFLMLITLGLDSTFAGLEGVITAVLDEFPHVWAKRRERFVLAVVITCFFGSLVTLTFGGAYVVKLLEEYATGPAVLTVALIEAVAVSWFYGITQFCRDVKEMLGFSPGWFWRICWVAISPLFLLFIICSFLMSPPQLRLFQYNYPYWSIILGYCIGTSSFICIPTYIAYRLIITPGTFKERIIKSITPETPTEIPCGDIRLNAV

[15] = test system: CV-B3; assay: microbe, parasite or virus in culture; assay type: cell-based, coxsackievirus B3; details: for EC50: Enterovirus B
[16] = test system: CV-A24v; assay: microbe, parasite or virus in culture; assay type: cell-based, coxsackievirus A24v

With `O=C(c1ccco1)N(Cc1ccc(F)cc1)c1ccccc1` [Compound 19b, N-(4-Fluorobenzyl)-N-phenylfuran-2-carboxamide] the EC50 ([1]; CVB3, HAP1, read-out: EC50 Hap1 Average) was 350 nM, the EC50 ([1]; CVB3, HAP1, read-out: Exp 1 EC50 Hap1) was 150 nM and the EC50 ([1]; CVB3, HAP1, read-out: Exp 2 EC50 Hap1) was 550 nM. For the same compound, the “NET, Mean (Figure 8B)” value ([2]; 1µM) was 124.304, the “NET, Mean as % (Figure 8B)” value ([2]; 1µM) was 124% and the “NET, Mean (Figure 8B)” value ([2]; 100µM) was 113.384. For the same compound, the “NET, Mean as % (Figure 8B)” value ([2]; 100µM) was 113%, the “inhibition of NET function (in words)” value ([2]; HEK293 cells expressing human NET, 1 μM or 100 μM) was “neither 12a, 19b, 19d, nor the combined compound 12b inhibited” and the “cytotoxicity (in words)” value [3] was “did not show any cytotoxicity”. It also gave an EC50 ([4]; HRVB14, HeLa R19, read-out: EC50 Exp1) of 11100 nM, an EC50 ([4]; HRVB14, HeLa R19, read-out: EC50 Exp2) of 9900 nM and an EC50 ([4]; HRVB14, HeLa R19, read-out: EC50 HRV-B14) of 10500 ± 610 nM. The CC50 ([5]; CC50 Average) was over 30000 nM, the CC50 ([5]; CC50 HelaR19 Average) was over 100000 nM and the CC50 ([5]; Exp 1 CC50) was over 30000 nM. For the same compound, the CC50 ([5]; Exp 1 CC50 HelaR19) was over 100000 nM, the CC50 ([5]; Exp2 CC50) was over 30000 nM and the CC50 ([5]; Exp 2 CC50 HelaR19) was over 100000 nM. For the same compound, the “inhibition of contemporary/clinical isolates of EV-A71, CV-A24v and EV-D68 (in words)” value [6] was “inhibited all clinical isolates of EV-A71, CV-A24v, and EV-D68 tested”, the “spectrum of antiviral activity (in words)” value [6] was “inhibited all representative EVs and RVs” and the “DAT, Mean (Figure 8B)” value ([7]; 1µM) was 94.861. The “DAT, Mean as % (Figure 8B)” value ([7]; 1µM) was 95%, the “DAT, Mean (Figure 8B)” value ([7]; 100µM) was 75.9783 and the “DAT, Mean as % (Figure 8B)” value ([7]; 100µM) was 76%. For the same compound, the “inhibition of DAT function (in words)” value ([7]; HEK293 cells expressing human DAT, 1 μM or 100 μM) was “neither 12a, 19b, 19d, nor the combined compound 12b inhibited”, the CC50 ([8]; CC50) was over 100000 nM and the CC50 ([8]; CC50 Hap1 Average) was over 100000 nM. For the same compound, the CC50 ([8]; Exp 1 CC50 Hap1) was over 100000 nM, the CC50 ([8]; Exp 2 CC50 Hap1) was over 100000 nM and the EC50 ([9]; Enterovirus C, CVA24, HeLa R19, read-out: EC50 CV-A24) was 6390 ± 740 nM. The EC50 ([9]; Enterovirus C, CVA24, HeLa R19, read-out: EC50 CV-A24 strain Joseph) was 4990 ± 610 nM, the EC50 ([9]; Enterovirus C, CVA24, HeLa R19, read-out: EC50 Exp1) was 5650 nM and the EC50 ([9]; Enterovirus C, CVA24, HeLa R19, read-out: EC50 Exp2) was 7120 nM. The EC50 ([9]; read-out: EC50 Exp1) was 4380 nM, the EC50 ([9]; read-out: EC50 Exp2) was 5600 nM and the “cross-resistance of 19d-resistant EV-D68 virus pools (in words)” value [10] was “cross-resistance”. For the same compound, the EC50 ([10]; EVD68, HeLa R19, […], read-out: EC50 Exp1) was 1870 nM, the EC50 ([10]; EVD68, HeLa R19, read-out: EC50 Average) was 830 nM and the EC50 ([10]; EVD68, HeLa R19, read-out: EC50 EV-D68) was 500 ± 260 nM. For the same compound, the EC50 ([10]; EVD68, HeLa R19, read-out: EC50 EV-D68 strain 4310900947) was 1850 ± 180 nM, the EC50 ([10]; EVD68, HeLa R19, read-out: EC50 EV-D68 strain 4310901348) was 1710 ± 680 nM and the EC50 ([10]; EVD68, HeLa R19, read-out: EC50 EV-D68 strain 4310902042) was 910 ± 920 nM. The EC50 ([10]; EVD68, HeLa R19, read-out: EC50 EV-D68 strain 4310902284) was 1290 ± 210 nM, the EC50 ([10]; EVD68, HeLa R19, read-out: EC50 EV-D68 strain 4311000742) was 1310 ± 900 nM and the EC50 ([10]; EVD68, HeLa R19, read-out: EC50 EV-D68 strain Fermon) was 580 ± 100 nM. The EC50 ([10]; EVD68 / genotype 2c, HeLa R19, read-out: EC50 EV-D68 WT) was 830 ± 90 nM, the CC50 ([11]; CC50) was over 100000 nM and the CC50 ([11]; CC50 BGM Average) was over 100000 nM. For the same compound, the CC50 ([11]; Exp 1 CC50 BGM) was over 100000 nM, the CC50 ([11]; Exp 2 CC50 BGM) was over 100000 nM and the EC50 ([12]; EVA71, HeLa R19, read-out: EC50 Average) was 2020 nM. The EC50 ([12]; EVA71, HeLa R19, read-out: EC50 EV-A71) was 890 ± 90 nM, the EC50 ([12]; EVA71, HeLa R19, read-out: EC50 EV-A71 strain BrCr) was 1120 ± 150 nM and the EC50 ([12]; EVA71, HeLa R19, read-out: EC50 EV-A71 strain TW/2728/04) was 2100 ± 80 nM. The EC50 ([12]; EVA71, HeLa R19, read-out: EC50 EV-A71 strain TW/2945/98) was 2020 ± 150 nM, the EC50 ([12]; EVA71, HeLa R19, read-out: EC50 EV-A71 strain TW/70811/08) was 920 ± 170 nM and the EC50 ([12]; EVA71, HeLa R19, read-out: EC50 EV-A71 strain TW/72232/04) was 3830 ± 250 nM. The EC50 ([12]; EVA71, HeLa R19, read-out: EC50 EV-A71 strain TW/96016/08) was 1890 ± 20 nM, the EC50 ([12]; EVA71 / genotype 2c, HeLa R19, read-out: EC50 EV-A71 WT) was 820 ± 120 nM and the EC50 ([13]; read-out: EC50 BGM Average) was 140 nM. The EC50 ([13]; read-out: Exp 1 EC50 BGM) was 180 nM, the EC50 ([13]; read-out: Exp 2 EC50 BGM) was 90 nM and the “SERT, Mean (Figure 8B)” value ([14]; 1µM) was 104.08. The “SERT, Mean as % (Figure 8B)” value ([14]; 1µM) was 104%, the “SERT, Mean (Figure 8B)” value ([14]; 100µM) was 84.31 and the “SERT, Mean as % (Figure 8B)” value ([14]; 100µM) was 84%. The “inhibition of SERT-mediated uptake (in words)” value ([14]; HEK293 cells expressing human SERT, 1 and 100 μM) was “neither 12a, 19b, 19d, nor the combined compound 12b inhibited”, the “cross-resistance of 19d-resistant CV-B3 virus pools (in words)” value [15] was “cross-resistant” and the “increase or decrease of antiviral activity against CV-B3” value [15] was “less than 3 fold”. The EC50 ([15]; CVB3, HeLa R19, read-out: CV-B3 EC50 Average) was 830 nM, the EC50 ([15]; CVB3, HeLa R19, read-out: CV-B3 Exp 1 EC50) was 730 nM and the EC50 ([15]; CVB3, HeLa R19, read-out: CV-B3 Exp2 EC50) was 930 nM. For the same compound, the EC50 ([15]; CVB3, HeLa R19, read-out: EC50 Exp1) was 220 nM, the EC50 ([15]; CVB3, HeLa R19, read-out: EC50 HelaR19 Average) was 680 nM and the EC50 ([15]; CVB3, HeLa R19, read-out: Exp 1 EC50 HelaR19) was 460 nM. The EC50 ([15]; CVB3, HeLa R19, read-out: Exp 2 EC50 HelaR19) was 890 nM, the EC50 ([15]; CVB3 / genotype 2c, HeLa R19, read-out: EC50 CV-B3 WT) was 290 ± 50 nM and the EC50 ([16]; Coxsackievirus, HeLa R19, read-out: EC50 CV-A24v strain 110386) was 2530 ± 450 nM. For the same compound, the EC50 ([16]; Coxsackievirus, HeLa R19, read-out: EC50 CV-A24v strain 110389) was 5650 ± 230 nM, the EC50 ([16]; Coxsackievirus, HeLa R19, read-out: EC50 CV-A24v strain 110390) was 4160 ± 170 nM and the EC50 ([16]; Coxsackievirus, HeLa R19, read-out: EC50 CV-A24v strain 110392) was 4350 ± 180 nM. The EC50 ([16]; Coxsackievirus, HeLa R19, read-out: EC50 Exp2) was 2980 nM and the EC50 ([16]; read-out: EC50 Exp2) was 5420 nM and 4320 nM and 4530 nM.
